Test results published in patent US12384770B2, “Heterocyclic compound” (Takeda Pharmaceutical Company Limited, priority 2019, dated 2025).

The compounds below were run against T1, HDAC6 enzyme (Homo sapiens, UniProt Q9UBN7) (assay: HDAC6 enzyme inhibitory assay (HDAC-Glo I/II Assay kit)). Details: wells without enzyme = 100% inhibition.
T1 construct: HDAC6 enzyme prepared by transducing full length HDAC6 gene into Sf-9 insect cells; GST; purchased SignalChem; host or cells: Sf-9 insect cells
T1 sequence (Q9UBN7 1-1215): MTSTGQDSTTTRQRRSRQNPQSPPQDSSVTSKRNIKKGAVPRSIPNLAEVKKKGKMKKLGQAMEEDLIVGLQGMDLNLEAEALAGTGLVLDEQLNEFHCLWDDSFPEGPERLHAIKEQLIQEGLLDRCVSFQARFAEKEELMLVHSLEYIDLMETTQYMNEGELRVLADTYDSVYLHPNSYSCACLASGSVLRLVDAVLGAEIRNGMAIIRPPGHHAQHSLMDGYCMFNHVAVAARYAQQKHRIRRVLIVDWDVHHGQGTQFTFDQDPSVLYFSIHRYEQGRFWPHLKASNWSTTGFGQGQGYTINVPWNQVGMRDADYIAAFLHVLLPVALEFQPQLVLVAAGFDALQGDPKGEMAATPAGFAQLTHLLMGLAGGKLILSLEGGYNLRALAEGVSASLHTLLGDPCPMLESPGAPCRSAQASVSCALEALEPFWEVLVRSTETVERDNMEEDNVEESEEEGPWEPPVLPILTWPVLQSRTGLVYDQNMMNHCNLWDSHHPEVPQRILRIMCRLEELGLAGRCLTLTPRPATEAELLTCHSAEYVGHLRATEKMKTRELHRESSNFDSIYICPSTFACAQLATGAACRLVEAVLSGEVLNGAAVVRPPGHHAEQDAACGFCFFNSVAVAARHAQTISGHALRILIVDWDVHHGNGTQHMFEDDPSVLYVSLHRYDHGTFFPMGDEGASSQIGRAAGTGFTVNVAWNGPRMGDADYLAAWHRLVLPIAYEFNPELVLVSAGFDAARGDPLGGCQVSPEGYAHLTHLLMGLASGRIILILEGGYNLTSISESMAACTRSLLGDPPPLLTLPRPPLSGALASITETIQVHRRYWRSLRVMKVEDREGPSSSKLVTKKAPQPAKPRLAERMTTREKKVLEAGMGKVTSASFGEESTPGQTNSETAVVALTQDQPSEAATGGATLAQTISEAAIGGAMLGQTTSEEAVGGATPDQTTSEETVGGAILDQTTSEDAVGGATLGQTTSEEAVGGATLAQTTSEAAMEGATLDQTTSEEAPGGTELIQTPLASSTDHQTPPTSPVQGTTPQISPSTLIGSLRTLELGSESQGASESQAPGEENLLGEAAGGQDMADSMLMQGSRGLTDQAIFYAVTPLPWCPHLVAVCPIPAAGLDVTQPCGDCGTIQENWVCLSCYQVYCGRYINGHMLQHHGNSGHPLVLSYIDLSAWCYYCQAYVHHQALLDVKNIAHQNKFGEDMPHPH
Format: biochemical
Procedure: Experimental Example 1 HDAC6 Enzyme Inhibitory Assay
HDAC6 enzyme prepared by transducing full length HDAC6 gene into Sf-9 insect cells and purifying by GST affinity column were purchased from SignalChem. Using this enzyme, HDAC6 enzyme inhibitory activity of the compound of the present invention were evaluated. Enzymes were used after preserved at −70° C. HDAC6 enzyme inhibitory activity of the compound of the present invention was measured using HDAC-Glo™ I/II Assay kit (Promega) according to the following experimental method. The test compound diluted with assay buffer (24 mM Tris-HCl (pH 7.5), 1 mM MgCl2, 0.35 mM KCl, 135 mM NaCl, 0.6 mM Glutathione, 0.01% Tween-20) was added to a 384-well plate by each 2 μL. Then, HDAC6 enzyme solution diluted with assay buffer was added thereto by each 4 μL, and the plate was incubated at room temperature for 60 min. After incubated, HDAC substrate-Developer solution prepared according to Promega protocol attached to the assay kit was added to the 384-well plate by each 2 μL, and the enzyme reaction was started. After reacting at room temperature for 20 min, luminescence level was measured using plate reader Envision (PerkinElmer). The inhibitory activity of each compound of Example was calculated as a relative activity value when luminescence level in wells without enzyme is considered as 100% inhibition.
`O=C1c2cc(-c3nnc(C(F)F)o3)ccc2CN1[C@H](c1cnccn1)[C@@H](O)c1cccc(F)c1` (single isomer, unassigned) [Example 101, 6-[5-(difluoromethyl)-1,3,4-oxadiazol-2-yl]-2-[(1R*,2S*)-2-(3-fluorophenyl)-2-hydroxy-1-(pyrazin-2-yl)ethyl]-2,3-dihydro-1H-isoindol-1-one] was tested, and the “HDAC6 inhibitory rate (%) (10 μM)” value was 100%.

Same assay, conditions: wells without enzyme = 100% inhibition, 10 µM
With `O=C1c2cc(-c3nnc(C(F)F)o3)ccc2CN1[C@H](C1CC1)[C@@H](O)c1cccc(Cl)n1` (single isomer, unassigned) [Example 130, 2-[(1R*,2R*)-2-(6-chloropyridin-2-yl)-1-cyclopropyl-2-hydroxyethyl]-6-[5-(difluoromethyl)-1,3,4-oxadiazol-2-yl]-2,3-dihydro-1H-isoindol-1-one] the “HDAC6 inhibitory rate (%) (10 μM)” value was 98%.
With `O=C1c2cc(-c3nnc(C(F)F)o3)ccc2CN1[C@H](c1ccc(F)cc1)[C@@H](O)c1cccnc1` (single isomer, unassigned) [Example 52, 6-[5-(difluoromethyl)-1,3,4-oxadiazol-2-yl]-2-[(1R*,2S*)-1-(4-fluorophenyl)-2-hydroxy-2-(pyridin-3-yl)ethyl]-2,3-dihydro-1H-isoindol-1-one] the “HDAC6 inhibitory rate (%) (10 μM)” value was 100%.

Same assay, conditions: wells without enzyme = 100% inhibition, read-out: HDAC6 inhibitory rate (%) (10 μM)
`O=C1c2cc(-c3nnc(C(F)F)o3)ccc2CN1[C@H](c1ccccn1)[C@@H](O)c1cccc(F)c1` (single isomer, unassigned) [Example 61, 6-[5-(difluoromethyl)-1,3,4-oxadiazol-2-yl]-2-[(1R*,2S*)-2-(3-fluorophenyl)-2-hydroxy-1-(pyridin-2-yl)ethyl]-2,3-dihydro-1H-isoindol-1-one] showed an inhibition at 10 µM of 100%.
`O=C1c2cc(-c3nnc(C(F)F)o3)ccc2CN1[C@H](C1CC1)[C@@H](O)c1cccc(Cl)n1` (single isomer, unassigned) [Example 129, 2-[(1R*,2R*)-2-(6-chloropyridin-2-yl)-1-cyclopropyl-2-hydroxyethyl]-6-[5-(difluoromethyl)-1,3,4-oxadiazol-2-yl]-2,3-dihydro-1H-isoindol-1-one] showed an inhibition at 10 µM of 100%.
With `O=C1c2cc(-c3nnc(C(F)F)o3)ccc2CN1[C@H](c1ccccn1)[C@H](O)c1ccccn1` (racemic) [Example 135, 6-[5-(difluoromethyl)-1,3,4-oxadiazol-2-yl]-2-[(1RS,2SR)-2-hydroxy-1,2-di(pyridin-2-yl)ethyl]-2,3-dihydro-1H-isoindol-1-one] the inhibition at 10 µM was 99%.
`O=C1c2cc(-c3nnc(C(F)F)o3)ccc2CN1[C@H](c1ncccn1)[C@H](O)c1cccc(F)c1` (racemic) [Example 136, 6-[5-(difluoromethyl)-1,3,4-oxadiazol-2-yl]-2-[(1RS,2RS)-2-(3-fluorophenyl)-2-hydroxy-1-(pyrimidin-2-yl)ethyl]-2,3-dihydro-1H-isoindol-1-one] was tested, and the inhibition at 10 µM was 99%.
In the case of `O=C1c2cc(-c3nnc(C(F)F)o3)ccc2CN1[C@H](c1cccc(F)n1)[C@@H](O)c1ccccn1` (single isomer, unassigned) [Example 75, 6-[5-(difluoromethyl)-1,3,4-oxadiazol-2-yl]-2-[(1R*,2R*)-1-(6-fluoropyridin-2-yl)-2-hydroxy-2-(pyridin-2-yl)ethyl]-2,3-dihydro-1H-isoindol-1-one], the inhibition at 10 µM is reported as 99%.
Compound `N#Cc1cccc([C@H]([C@@H](O)c2ccccc2)N2Cc3ccc(-c4nnc(C(F)F)o4)cc3C2=O)c1` (racemic) [Example 40, 3-[(1RS,2SR)-1-{6-[5-(difluoromethyl)-1,3,4-oxadiazol-2-yl]-1-oxo-1,3-dihydro-2H-isoindol-2-yl}-2-hydroxy-2-phenylethyl]benzonitrile] has an inhibition at 10 µM of 100%.
Work on `O=C1c2cc(-c3nnc(C(F)F)o3)ccc2CN1[C@H](C1CC1)[C@H](O)c1ccc(F)cc1` [Example 137, 2-[(1R,2R)-1-cyclopropyl-2-(4-fluorophenyl)-2-hydroxyethyl]-6-[5-(difluoromethyl)-1,3,4-oxadiazol-2-yl]-2,3-dihydro-1H-isoindol-1-one] yielded an inhibition at 10 µM of 100%.
With `O=C1c2cc(-c3nnc(C(F)F)o3)ccc2CN1[C@H](C1CCOCC1)[C@@H](O)c1cccc(C(F)(F)F)c1` (racemic) [Example 116, 6-[5-(difluoromethyl)-1,3,4-oxadiazol-2-yl]-2-{(1RS,2SR)-2-hydroxy-1-(oxan-4-yl)-2-[3-(trifluoromethyl)phenyl]ethyl}-2,3-dihydro-1H-isoindol-1-one] the inhibition at 10 µM was 101%.
Work on `O=C1c2cc(-c3nnc(C(F)F)o3)ccc2CN1[C@H](C1CCOCC1)[C@H](O)c1cccc(F)c1` [Example 149, 6-[5-(difluoromethyl)-1,3,4-oxadiazol-2-yl]-2-[(1R,2R)-2-(3-fluorophenyl)-2-hydroxy-1-(oxan-4-yl)ethyl]-2,3-dihydro-1H-isoindol-1-one] yielded an inhibition at 10 µM of 100%.
Compound `O=C1c2cc(-c3nnc(C(F)F)o3)ccc2CN1[C@H](C1CCC(F)(F)CC1)[C@@H](O)c1ccc(F)nc1` (racemic) [Example 82, 2-[(1RS,2SR)-1-(4,4-difluoro-cyclohexyl)-2-(6-fluoropyridin-3-yl)-2-hydroxyethyl]-6-[5-(difluoromethyl)-1,3,4-oxadiazol-2-yl]-2,3-dihydro-1H-isoindol-1-one] has an inhibition at 10 µM of 100%.
`O=C1c2cc(-c3nnc(C(F)F)o3)ccc2CN1[C@@H](c1ccccn1)[C@H](O)c1cccc(F)n1` [Example 8, 6-[5-(difluoromethyl)-1,3,4-oxadiazol-2-yl]-2-[(1S,2S)-2-(6-fluoropyridin-2-yl)-2-hydroxy-1-(pyridin-2-yl)ethyl]-2,3-dihydro-1H-isoindol-1-one] gave an inhibition at 10 µM of 99%.
Work on `O=C1c2cc(-c3nnc(C(F)F)o3)ccc2CN1[C@H](C1CC1)[C@@H](O)c1ccc(F)cc1` [Example 9, 2-[(1R,2S)-1-cyclopropyl-2-(4-fluorophenyl)-2-hydroxyethyl]-6-[5-(difluoromethyl)-1,3,4-oxadiazol-2-yl]-2,3-dihydro-1H-isoindol-1-one] yielded an inhibition at 10 µM of 100%.
`O=C1c2cc(-c3nnc(C(F)F)o3)ccc2CN1[C@H](C1CCOCC1)[C@@H](O)c1ccc(F)c(Cl)c1` (racemic) [Example 107, 2-[(1RS,2SR)-2-(3-chloro-4-fluorophenyl)-2-hydroxy-1-(oxan-4-yl)ethyl]-6-[5-(difluoromethyl)-1,3,4-oxadiazol-2-yl]-2,3-dihydro-1H-isoindol-1-one] was tested, and the inhibition at 10 µM was 101%.
`O=C1c2cc(-c3nnc(C(F)F)o3)ccc2CN1[C@H](C1CC1)[C@@H](O)c1cccc(F)c1` [Example 10, 2-[(1R,2S)-1-cyclopropyl-2-(3-fluorophenyl)-2-hydroxyethyl]-6-[5-(difluoromethyl)-1,3,4-oxadiazol-2-yl]-2,3-dihydro-1H-isoindol-1-one] showed an inhibition at 10 µM of 100%.
Work on `O=C1c2cc(-c3nnc(C(F)F)o3)ccc2CN1[C@H](c1cnccn1)[C@@H](O)c1ccccc1` (single isomer, unassigned) [Example 127, 6-[5-(difluoromethyl)-1,3,4-oxadiazol-2-yl]-2-[(1R*,2S*)-2-hydroxy-2-phenyl-1-(pyrazin-2-yl)ethyl]-2,3-dihydro-1H-isoindol-1-one] yielded an inhibition at 10 µM of 99%.
With `O=C1c2cc(-c3nnc(C(F)F)o3)ccc2CN1[C@H](c1ccccn1)[C@@H](O)c1cc(Cl)ccn1` (single isomer, unassigned) [Example 123, 2-[(1R*,2R*)-2-(4-chloropyridin-2-yl)-2-hydroxy-1-(pyridin-2-yl)ethyl]-6-[5-(difluoromethyl)-1,3,4-oxadiazol-2-yl]-2,3-dihydro-1H-isoindol-1-one] the inhibition at 10 µM was 101%.
